A short description of series [1]: Tolerance / cytotoxicity of compounds in U2OS cells. The conditions noted are these: human, u2os cells, 8 h assay, read-out: concentration above which cytotoxic. The format is cell-based. On the procedure:
U2OS cells were treated with HU and the formation of mUb-FANCD2 in the presence of CU 1, CU2, and CU9 was evaluated relative to a DMSO control. Following a 1-h preincubation with the compounds, cells were treated with 2.5 mM of HU for 24 h. […] Accordingly, cells were treated with a higher concentration of compounds in further experiments.

The test system of another series is T1, UBE2D1.
T1 construct: His6 (N); made in house; host or cells: E. coli Rosetta (DE3)
The series can be described thus: Gel-based ubiquitylation assay (UBE2D1/GST-FANCLRING), ubiquitylated UBE2D1 species. The conditions noted are these: E2 = UBE2D1, E3 = GST-FANCLRING; 30 min at 37 °C. Type of series: biochemical. On the procedure: Figure 2 Gel-based ubiquitylation assays with confirmed HTRF hits. […] Western blots (WB) probed for GST or biotin as labeled. Reactions contained 20 nM His6-UBE1, 50 nM E2, 250 nM GST-E3, 500 nM biotinylated ubiquitin: (a) E2 = UBE2T, E3 = GST-FANCLRING, 30 min of reaction at 37 °C; (b) E2 = UBE2D1, E3 = GST-FANCLRING, 30 min of reaction at 37 °C; and (c) E2 = UBE2D1, E3 = GST-RNF8, 10 min of reaction at 37 °C.
In order to explore the selectivity of CU1, CU2, CU9, CU10, and CU12, we conducted a counter-screen against other E2 and E3 combinations. Since members of the UBE2D family of E2s are known to ubiquitylate multiple substrates in vitro,[13] a ubiquitylation assay featuring UBE2D1 and GST-FANCLRING was performed. With UBE2D1, multiple ubiquitylated GST-FANCLRING species could be observed (Figure 2b).
Purified protein was concentrated using a Vivaspin-6 concentrator with a 10 kDa MW cut-off (Vivascience) and flash-frozen in small aliquots for storage at […]
Cy5 labelling of ubiquitin. […]
Homogeneous Time-Resolved Fluorescence (HTRF) Assay. […]
(v/v) DMSO. […] Signal was measured at λEx 340 nm and λEm 665 nm and 620 nm using a PHERAstar FS plate reader
(BMG Labtech). A ratio was calculated as [λEm(665)/λEm(620)] × 104 for each well and this was used to determine the percent inhibition for test compounds. […]

Where only a bound is given, the exact number is not on record here.

In the case of `NCCN1C(=O)CC[C@H]2CN(Cc3cccc(-c4ccco4)c3)CC[C@H]21` [CU1], in series [1], the MCC at 8 h is above 300 µM.
Regarding `NC(=O)[C@@H]1CCCN1C(=O)c1cc(-n2cccc2)ccc1Cl` [CU12], in the series on UBE2D1, the “formation of ubiquitylated UBE2D1 species” value is on record as “prevented the formation of any ubiquitylated UBE2D1 species”.

Values taken from paper PMC6804243, “Small-Molecule Inhibition of UBE2T/FANCL-Mediated Ubiquitylation in the Fanconi Anemia Pathway” (ACS Chemical Biology, 2019).
